According to patent US20230303506A1, “COMPOSITIONS AND METHODS FOR THE PREVENTION AND/OR TREATMENT OF MITOCHONDRIAL DISEASE, INCLUDING FRIEDREICH'S ATAXIA” (Stealth BioTherapeutics Inc., priority 2019, published 2023):
“Also recorded” adds a separate entry of the source. Where two headings read alike, the source gives them in different places.

Columns and labels:
[1] = tested on: frataxin deficient fibroblasts (GM03665); test: cells; type: cell-based
[2] = tested on: HepG2 human hepatocarcinoma cells; test: Rotenone ATP Assay (Complex I Assay); type: cell-based; settings: for activity in both the BSO Assay and the Rotenone ATP Assay, in words: BSO Assay and Rotenone ATP Assay taken together; for Complex I by-pass activity / restoring ATP production, in words: summary of rotenone assays; for EC50: HepG2, 50 micromolar rotenone, 60 minutes
Procedure: This assay has been adapted from Haefeli R H, Erb M, Gemperli A C, Robay D, Courdier Fruh I, et al. (2011) NQO1-Dependent Redox Cycling of Idebenone: Effects on Cellular Redox Potential and Energy Levels. PLoS ONE 6(3): e17963. HepG2 human hepatocarcinoma cells were co-incubated with the electron transport chain Complex I toxin rotenone +/− compounds of interest and the corresponding effect on ATP synthesis was measured with a bioluminescent substrate.
In brief, HepG2 cells were plated at 25,000 cells per well in low glucose (1 gram/Liter) DMEM medium+10% fetal calf serum and incubated for 24 hours. The following day, the media was decanted and subsequently replaced with glucose free/serum free DMEM which has been supplemented with 50 micromolar rotenone and compound of interest. Serial dilutions of compound were prepared in 3× dilutions beginning at 25 micromolar. The cells were incubated for 60 minutes in a humidified tissue culture incubator. Following incubation, ATP levels were quantified via bioluminescent assay (Promega […] Glo Assay kit) and readings were captured on a standard microplate reader.
ATP bioluminescence is plotted versus the log of compound of interest and data were used to generate EC50 values. Curve fitting was performed using a sigmoidal dose response curve fit function (GraphPad Prism software).
Robustness of curve fit was assessed as a quality control measure, with an R squared value of at least 0.80 being required for a successful curve fit. Compounds of interest showing an increase in ATP bioluminescence relative to vehicle control were verified in an independent biological replicate of n=3 technical replicates per dose.
This assay is a direct measure of the ability of compounds of interest to restore ATP production under conditions of inhibition of Complex I of the mitochondrial electron transport chain. As the majority of ATP produced via the electron transport chain is thought to derive from Complex I activity, significant impairment in Complex I function has dire biological consequences. Of note, Complex I mutations are thought to drive pathophysiology in multiple mitochondrial diseases, including Leigh syndrome and Leber's Hereditary Optic Neuropathy (LHON), while diminished Complex I activity and the resultant attenuation of ATP production has been shown in neurodegenerative diseases, including Friedreich's Ataxia, Parkinson's Disease and Huntington's Disease.

GM03665 cells = test: RSL3 Toxicity Assay (RSL3 Assay); type: cell-based, human; settings: for EC50: 2 μM RSL3, 24 hours, MTT
Procedure: In brief, GM03665 cells (Coriell Institute) were seeded in 96-well plates (Sarstedt) in DMEM cell culture media containing 10% Fetal Bovine serum and 1% Penicillin-Streptomycin (Pen-Strep) antibiotic mix at the amount of 2×10^4/mL (100 μL or 2×10^3 cells per well). Cells were left to rest overnight at 37° C. in a humidified atmosphere with 5% CO2 to allow attachment of the cells to the culture plate. Test compounds were prepared as DMSO stocks (10 mM) and were serially diluted in cell culture media to obtain 2× working solutions. Cell media was discarded and replaced by 50 μL of test compound solutions or cell media with vehicle for control wells. Within 15 minutes, 2× working solution (4 μM) of 1S,3R-RSL3 (CAS #1219810-16-8, Sigma-Aldrich) (diluted from 5 mM DMSO stock in cell culture media) was added. Final reaction volume was 100 μL and final DMSO concentration in reaction was kept below 0.2% (v/v) and equal in all wells. Final RSL3 concentration was 2 μM and test compound final concentrations in reaction were up to 1000 nM. After 24 hours of incubation cell viability was assessed by MTT test. MTT (Sigma-Aldrich) solution 1 mg/mL in 1×PBS (pH=7,4) was prepared 1 hour before the assay and filtered through Filtropur S 0.2 filters (Sarstedt). Cell media with test compounds was discarded and 100 μL of MTT solution was added to cells. The plates were incubated for 2 hours at +37° C. Thereafter, the MTT solution was removed and 100 μL of isopropanol was added to dissolve sediment. Absorption at 570 and 650 nm was measured using Hidex Sense microplate reader.

HepG2 cells = test: Rotenone Oxygraph Assay (high-resolution respirometry of intact HepG2 cells); type: cell-based, human; settings: Table 7; 1 μM rotenone, compound 10 μM
Procedure: The Oxygraph-2 k (O2k, OROBOROS INSTRUMENTS, Austria) was used for measurements of respiration of intact cells. The respirometry was performed in Dulbecco's Modified Eagle Medium (DMEM) high glucose without supplements. All experiments were performed at 37° C.
HepG2 cells (ATCC collection code HB-8065™) were cultured in 10 cm^2 culture dishes in DMEM high glucose medium supplemented with 10% fetal bovine serum (FBS) and 100 units/mL penicillin and 100 μg/mL streptomycin until approximately 90% confluence was reached. Immediately prior to performing the respirometric assay, the cells were washed with media without FBS, trypsinized and resuspended in DMEM high glucose without FBS.
The final concentration of intact cells in the O2k-chamber was 0.5·10^6/mL. After stabilization of respiration, the Complex I inhibitor, rotenone, at 1 μM final concentration was added to inhibit electron flux via Complex I. Then, compound to be tested was added at 10 μM final concentration, and the change in respiration rate of intact cells was monitored.

Nrf-2 = Nrf-2 Activation Assay (Nrf-2 Assay); type: cell-based, human; settings: for activation of Nrf-2 pathway, in words: FIG. 7; for Nrf-2 Assay: Table 7, 1 μM compound, 24 hours, qPCR of Nrf-2 responsive genes
Procedure: This assay was developed internally and was designed to determine if the novel test compounds disclosed herein active Nrf-2 and thereby promote resolution of inflammation by the mechanism believed to be responsible for the activity of omaveloxolone.
Briefly, GM03665 Friedreich Ataxia patient fibroblasts were grown in 12 Well Plates (TC Cell+F) (Sarstedt, Numbrecht Germany), at a density of […] in DMEM/F12 (Gibco, ThermoFisher Scientific, Waltham, MA, USA) cell media supplemented with 10% FBS and 1% Pen/Strep. Cells were left to rest overnight at 37° C. in a humidified atmosphere with 5% CO2 to allow attachment of the cells to the culture plate. Before continuing assay visual inspection of each well was done by light microscopy to detect any possible bacterial and fungal contamination. […] After incubation, cell media was removed and total RNA from the cells was isolated using E.Z.N.A.® Total RNA Kit I (Omega Bio-tek, Norcross, Georgia, USA) spin columns, and first-strand cDNA synthesis was carried out using a High Capacity cDNA Reverse Transcription Kit (Applied Biosystems™, Foster City, CA) following the manufacturer's instructions. qPCR analysis of gene expression was performed by mixing SYBR® Green Master Mix (Applied Biosystems™) with synthesized cDNA and forward and reverse primers. […] (60 cycles), and 95° C. for 60 seconds, followed by melt curve analysis at 72-95° C., 0.3° C./sec. The relative expression levels for each gene were calculated with the ΔΔCt method and normalized to the expression of REEP5 and SNRPD3 genes.

lipoxygenase-15 enzyme = lipoxygenase-15 enzyme (Glycine max (Soybean) (Glycine hispida), UniProt P08170); test: Lipoxygenase-15 Assay (LO-15 Assay); settings: reduced form of compounds

| Molecule | activity in BSO assay (protection from BSO induced cell death), in words [1] | activity in both the BSO Assay and the Rotenone ATP Assay, in words [2] | Complex I by-pass activity / restoring ATP production, in words [2] | activity in RSL3 assay (protection from RSL3 induced ferroptosis), in words (GM03665 cells) | Rotenone Oxygraph Assay % Increase (HepG2 cells) | activation of Nrf-2 pathway, in words (Nrf-2) | Nrf-2 Assay (Nrf-2) | activity in LO-15 assay, in words (lipoxygenase-15 enzyme) | EC50 ([1]; Table 7, FA patient fibroblasts, 10 mM BSO, 48 hrs, MTT, read-out: BSO Assay) [nM] | EC50 ([2]; ATP bioluminescence, read-out: EC50 Rotenone ATP Assay) [nM] | EC50 ([2]; Table 7, read-out: Rotenone ATP Assay EC50) [nM] | EC50 (GM03665 cells; Table 3, mean of at least three measurements, unit printed in Table 7, read-out: RSL3 Assay EC50, Mean) [nM] | EC50 (GM03665 cells; Table 7, read-out: RSL3 Assay EC50) [nM] |
| --- | --- | --- | --- | --- | --- | --- | --- | --- | --- | --- | --- | --- | --- |
| CC1=C(C)C(=O)C(CC[C@@](C)(O)CC/C=C(\C)CCC=C(F)F)=C(C)C1=O [Compound L, (S,E)-2-(11,11-difluoro-3-hydroxy-3,7-dimethylundeca-6,10-dien-1-yl)-3,5,6-trimethylcyclohexa-2,5-diene-1,4-dione] | able to prevent ferroptotic cell death; also recorded: active | possess both activities | active | active; also recorded: able to prevent ferroptotic cell death | 58.6 +/− 15.5% | do not activate | Inactive | active; also recorded: effective inhibitors | – | – | – | – | – |
| CC1=C(C)C(=O)C(CC[C@](C)(O)CCCCCCCCC(F)(F)F)=C(C)C1=O [Compound N, (R)-2,3,5-trimethyl-6-(12,12,12-trifluoro-3-hydroxy-3-methyldodecyl)cyclo-hexa-2,5-diene-1,4-dione] | able to prevent ferroptotic cell death; also recorded: active | possess both activities | active | active; also recorded: able to prevent ferroptotic cell death | 44.8 +/− 10.3% | do not activate | Inactive | active; also recorded: effective inhibitors | – | – | – | – | – |
| (R)-2-(3-hydroxy-3-methyl-4-(3-(trimethylsilyl)propoxy)butyl)-3,5,6-trimethylcyclohexa-2,5-diene-1,4-dione [Compound M] | able to prevent ferroptotic cell death; also recorded: active | – | active | active; also recorded: able to prevent ferroptotic cell death | 56.6 +/− 11.3% | do not activate | Inactive | best result; also recorded: effective inhibitors | 61.2 | 1000 to 3000 | 1340 | 41.2 | 41.2 |
